Test results taken from article PMC10649961, “Novel Mitochondria-Targeted Amphiphilic Aminophosphonium Salts and Lipids Nanoparticles: Synthesis, Antitumor Activity and Toxicity” (Nanomaterials, 2023).
Read-outs that look alike come from different tables or passages of the source.

Tests used:
[1] = test system: T98G; test: cells; details: Homo sapiens, 48 h, read-out: Cytotoxic Effects (IC50)
[2] = test system: Pseudomonas aeruginosa ATCC 9027; test: Antimicrobial activity, serial microdilutions, Pa; format: cell-based; parameters: key to Minimum Inhibitory Concentration (MIC) / Minimum bactericidal and fungicidal concentrations (MBC, MFC): – means non-active
In short: (§1)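 Yeast was cultured in Sabouraud broth and bacteria in Mueller-Hinton broth while compounds were tested by serial microdilution. The methicillin-resistant isolate (MRSA-1) originated from chronic tonsillitis; replicates n=3.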

[3] = test system: HuTu 80; test: cells; details: Homo sapiens, HuTu80, 48 h, read-out: Cytotoxic Effects (IC50)
[4] = test system: MRSA-1; test: Antimicrobial activity, serial microdilutions, MRSA-1; format: cell-based, S. aureus; details: Staphylococcus aureus; for MIC: read-out: Minimum Inhibitory Concentration (MIC); for MBC: read-out: Minimum bactericidal and fungicidal concentrations (MBC, MFC)
In short: as §1

[5] = test system: Hep G2
[6] = test system: HuTu 80
[7] = test system: SK-OV-3; details: reference normal cell line not marked at the place (ns cells)
[8] = test system: M-HeLa
[9] = test system: T98G
[10] = test system: PANC-1
[11] = test system: A549; test: cells; details: Homo sapiens, A549, 48 h, read-out: Cytotoxic Effects (IC50)
[12] = test system: MCF-7; test: cells; details: Homo sapiens, MCF7, 48 h, read-out: Cytotoxic Effects (IC50)
[13] = test system: MRSA-2; test: Antimicrobial activity, serial microdilutions, MRSA-2; format: cell-based, S. aureus; details: Staphylococcus aureus; for MIC: read-out: Minimum Inhibitory Concentration (MIC); for MBC: read-out: Minimum bactericidal and fungicidal concentrations (MBC, MFC)
In short: (§2)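 Compounds were serially diluted in broth: Mueller-Hinton for the bacterial strains, Sabouraud for the yeast. Each determination was done in triplicate.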

[14] = test system: SK-OV-3; test: cells; details: Homo sapiens, SK-OV-3, 48 h, read-out: Cytotoxic Effects (IC50)
[15] = test system: Enterococcus faecalis ATCC 29212; test: Antimicrobial activity, serial microdilutions, Ef; format: cell-based; parameters: key to Minimum Inhibitory Concentration (MIC) / Minimum bactericidal and fungicidal concentrations (MBC, MFC): – means non-active; details: for MIC: Enterococcus faecalis, ATCC29212, read-out: Minimum Inhibitory Concentration (MIC)
In short: as §2

[16] = test system: MCF-7
[17] = test system: Candida albicans ATCC 10231; test: Antimicrobial activity, serial microdilutions, Ca; format: cell-based; parameters: key to Minimum Inhibitory Concentration (MIC) / Minimum bactericidal and fungicidal concentrations (MBC, MFC): – means non-active; details: Ca
In short: as §1

[18] = test system: Bacillus cereus ATCC 10702 NCTC 8035; test: Antimicrobial activity, serial microdilutions, Bc; format: cell-based; parameters: key to Minimum bactericidal and fungicidal concentrations (MBC, MFC): – means non-active; details: for MIC: read-out: Minimum Inhibitory Concentration (MIC)
In short: as §1

[19] = test system: DU-145
[20] = test system: PANC-1; test: cells; details: Homo sapiens, PANC-1, 48 h, read-out: Cytotoxic Effects (IC50)
[21] = test system: M-HeLa; test: cells; details: Homo sapiens, 48 h, read-out: Cytotoxic Effects (IC50)
[22] = test system: Staphylococcus aureus ATCC 6538 P FDA 209P; test: Antimicrobial activity, serial microdilutions, Sa; format: cell-based; details: Staphylococcus aureus; for MIC: read-out: Minimum Inhibitory Concentration (MIC); for MBC: read-out: Minimum bactericidal and fungicidal concentrations (MBC, MFC)
In short: as §2

[23] = test system: PC3
[24] = test system: Escherichia coli ATCC 25922; test: Antimicrobial activity, serial microdilutions, Ec; format: cell-based; parameters: key to Minimum Inhibitory Concentration (MIC) / Minimum bactericidal and fungicidal concentrations (MBC, MFC): – means non-active
In short: as §1

[25] = test system: DU-145; test: cells; details: Homo sapiens, DU-145, 48 h, read-out: Cytotoxic Effects (IC50), DU-145, MTT assay, 48 h
[26] = test system: Hep G2; test: cells; details: Homo sapiens, HepG2, 48 h, read-out: Cytotoxic Effects (IC50)
[27] = test system: A549; details: reference normal cell line not marked at the place (ns cells)
[28] = calculated relative to the cell line Chang liver (b)
[29] = reference normal cell line not marked at the place (ns cells)
[30] = calculated relative to the cell line WI38 (a)

Row | Structure (SMILES) | IC50 [1] | Minimum Inhibitory Concentration (MIC) [2] | Minimum bactericidal and fungicidal concentrations (MBC, MFC) [2] | IC50 [3] | MIC [4] | MBC [4] | selectivity index (SI) [7] | IC50 [11] | IC50 [12] | MIC [13] | MBC [13] | IC50 [14] | Minimum bactericidal and fungicidal concentrations (MBC, MFC) [15] | MIC [15] | Minimum Inhibitory Concentration (MIC) [17] | Minimum bactericidal and fungicidal concentrations (MBC, MFC) [17] | MIC ([18]; Bacillus cereus, Bc) | IC50 [20] | IC50 [21] | MIC [22] | also measured
1 | CCCCCCCC[P+](N(CC)CC)(N(CC)CC)N(CC)CC [4b, Tris(diethylamino)(octyl)phosphonium iodide] | 5.9 ± 0.4 µM | – | – | 3.2 ± 0.2 µM | 15.6 ± 0.3 µM | 500 ± 47 µM | ns (ns—no selectivity) | 15.4 ± 1.2 µM | 2.9 ± 0.2 µM | 15.6 ± 1.2 µM | 125 ± 9 µM | 26.3 ± 1.8 µM | – | 250 ± 19 µM | – | – | 7.8 ± 0.7 µM | 2.3 ± 0.1 µM | 1.8 ± 0.1 µM | 15.6 ± 1.3 µM | selectivity index (SI) [5, 28]: 1.4; selectivity index (SI) [6, 28]: 1.3; selectivity index (SI) [8, 28]: 2.2; selectivity index (SI) [9, 29]: ns (ns—no selectivity); selectivity index (SI) [10, 28]: 1.7; selectivity index (SI) [16, 28]: 1.4; Minimum bactericidal and fungicidal concentrations (MBC, MFC) ([18]; Bc): –; selectivity index (SI) [19, 29]: ns (ns—no selectivity); MBC [22]: 31.3 ± 2.3 µM; selectivity index (SI) [23, 29]: ns (ns—no selectivity); Minimum Inhibitory Concentration (MIC) [24]: –; Minimum bactericidal and fungicidal concentrations (MBC, MFC) [24]: –; IC50 [25]: 4.2 ± 0.3 µM; IC50 [26]: 2.9 ± 0.2 µM; selectivity index (SI) [27]: ns (ns—no selectivity)
2 | CCCCCC[P+](c1ccccc1)(c1ccccc1)N(CC)CC [6a, (Diethylamino)(hexyl)diphenylphosphonium iodide] | 18.4 ± 1.5 µM | – | – | 0.1 ± 0.007 µM | 62.5 ± 5.3 µM | 500 ± 47 µM | ns (ns—no selectivity) | 48.2 ± 3.4 µM | 17 ± 1.3 µM | 62.5 ± 5.6 µM | 62.5 ± 5.6 µM | 36.8 ± 2.6 µM | – | 125 ± 11 µM | – | – | 31.3 ± 2.3 µM | 5.5 ± 0.4 µM | 5.8 ± 0.4 µM | 62.5 ± 5.5 µM | selectivity index (SI) [5, 29]: ns (ns—no selectivity); selectivity index (SI) [6, 30]: 277; selectivity index (SI) [8, 30]: 4.8; selectivity index (SI) [9, 30]: 1.5; selectivity index (SI) [10, 30]: 5.0; selectivity index (SI) [16, 30]: 1.6; MBC ([18]; Bacillus cereus, read-out: Minimum bactericidal and fungicidal concentrations (MBC, MFC)): 500 ± 46 µM; selectivity index (SI) [19, 30]: 11; MBC [22]: 125 ± 10 µM; selectivity index (SI) [23, 30]: 6.9; Minimum Inhibitory Concentration (MIC) [24]: –; Minimum bactericidal and fungicidal concentrations (MBC, MFC) [24]: –; IC50 [25]: 2.6 ± 0.3 µM; IC50 [26]: 34.4 ± 2.4 µM; selectivity index (SI) [27]: ns (ns—no selectivity)
